ChEMBL document CHEMBL1201862, “PubChem BioAssay data set” (2004)
Activity calls are given as the source filed them.

How the values were obtained:
[1] = Trypanosoma cruzi growth suppression in host cells – NIH3T3 host cells, beta-gal luminescence, confirmation (AID 2044); format: functional, cell-based;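 also: intracellular parasites grown in NIH/3T3 mouse fibroblasts as host cells; luminescent beta-galactosidase reporter signal from transgenic T. cruzi replicating inside host cells; inhibitors lower the luminescence signal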
[2] = target: T1, Microphthalmia-associated transcription factor (Homo sapiens, UniProt O75030); assay: reducers of TRPM1 reporter luminescence, concentration series – cell-based, SK-MEL-5, cherry-picked, set 3, MITF inhibitor project, dose response (AID 493073); format: functional;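 also: SK-MEL-5 melanoma cells with luciferase driven by the MITF target TRPM1 promoter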
T1 sequence (O75030 whole entry): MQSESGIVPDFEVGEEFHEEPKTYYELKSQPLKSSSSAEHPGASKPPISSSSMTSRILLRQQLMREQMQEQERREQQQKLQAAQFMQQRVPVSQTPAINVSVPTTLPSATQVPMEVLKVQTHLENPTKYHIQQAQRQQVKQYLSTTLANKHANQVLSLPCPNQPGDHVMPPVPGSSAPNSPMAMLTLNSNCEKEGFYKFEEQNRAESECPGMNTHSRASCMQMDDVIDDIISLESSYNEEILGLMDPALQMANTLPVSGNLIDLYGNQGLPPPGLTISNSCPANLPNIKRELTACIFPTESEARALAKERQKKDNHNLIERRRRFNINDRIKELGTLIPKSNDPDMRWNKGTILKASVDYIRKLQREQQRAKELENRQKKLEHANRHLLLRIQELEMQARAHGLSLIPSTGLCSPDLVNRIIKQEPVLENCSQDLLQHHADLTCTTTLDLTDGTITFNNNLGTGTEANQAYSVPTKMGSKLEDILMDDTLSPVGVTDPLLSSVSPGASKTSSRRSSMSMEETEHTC

[3] = target: Protein Wnt-3a (Mus musculus, UniProt P27467); assay: antagonism of Wnt3a pathway luciferase reporter – Wnt-LIGHT cells, luminescence, selectivity assay for Gli-SUFU antagonist project, dose response (AID 651570); format: functional; details: read-out: IC50_Mean;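 also: Wnt-LIGHT reporter cells stimulated with conditioned medium from Wnt3a-producing cells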
[4] = NIH-3T3 fibroblast cytotoxicity, dose response, cytotoxicity control, cell-based, fluorescence, Alamar Blue, secondary assay (AID 2327); format: functional;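 also: NIH-3T3 mouse fibroblasts cultured with fluconazole at 8 µg/mL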
[5] = NIH3T3 cell viability loss – ATP luminescence, mouse fibroblasts, counter-screen, dose response (AID 2010); format: functional, cell-based;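 also: cells exposed to compound for about 90 hours before reading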
[6] = cells
[7] = fluconazole-exposed Candida albicans growth modulators – fluorescence, retest, confirmation (AID 2467); format: functional, cell-based
[8] = test system: BJ; assay: BJ-TERT fibroblast viability loss – cell-based, RAS-independent, luminescence, dose response (AID 1933); format: functional; details: Homo sapiens
[9] = target: Paired box protein Pax-8 (Homo sapiens, UniProt Q06710); assay: PAX8 transcriptional activity inhibition in RMG-I – RMG-I cells, luciferase, cherry-pick, dose response (AID 687027); format: functional, cell-based;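 also: luciferase reporter driven by Pax8 target thyroperoxidase promoter measured by SteadyGlo luminescence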
[10] = test system: BJ; assay: BJ-TERT-LT-ST fibroblast viability loss – cell-based, RAS-independent, luminescence, dose response (AID 1935); format: functional; details: Homo sapiens;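 also: BJ fibroblasts immortalized with TERT plus LT and ST oncogenes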
[11] = general cell-killing toxicity readout – plate reader, dry powder samples, cytotoxicity control for PAX8 inhibitor project, dose response (AID 743021); format: functional, cell-based
[12] = DRD fibroblast viability loss – cell-based, non-viral oncogenic, luminescence, dose response (AID 1934); format: functional; details: Homo sapiens
[13] = test system: BJ; assay: cells; format: functional, cell-based; details: Homo sapiens
[14] = test system: BJ; assay: growth inhibition of engineered Ras-driven BJ cells – cell-based, alamar blue fluorescence, cherrypicked samples, dose response (AID 2631); format: functional; details: Homo sapiens;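 also: confirmatory dose-response assay in RAS-dependent BJ fibroblasts engineered with TERT, LT and ST, with cytotoxicity read by fluorescence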
[15] = target: Ras and Rab interactor 1/Tyrosine-protein kinase ABL1 (Homo sapiens, UniProt P00519+Q13671); format: functional;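 also: biochemical TR-FRET dose-response test measuring inhibition of binding between Rin1 and Abl proteins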
[16] = target: T2, Low molecular weight phosphotyrosine protein phosphatase (Homo sapiens, UniProt P24666); format: functional; details: read-out: IC50_Mean;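 also: Dose-response confirmation assay measuring inhibition of LMPTP enzyme activity by fluorescence intensity read-out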
T2 sequence (P24666 whole entry): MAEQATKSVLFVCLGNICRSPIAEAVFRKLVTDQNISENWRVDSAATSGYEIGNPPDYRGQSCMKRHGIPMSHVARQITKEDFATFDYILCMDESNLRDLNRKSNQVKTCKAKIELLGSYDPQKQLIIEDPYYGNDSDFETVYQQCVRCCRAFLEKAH

[17] = target: Cytochrome P450 3A4 (Homo sapiens, UniProt P08684);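 also: CYP3A4 tested as one member of a cytochrome P450 panel screen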
[18] = target: Cytochrome P450 2C9 (Homo sapiens, UniProt P11712)
[19] = target: T3, Serine/threonine-protein phosphatase (Candida dubliniensis (strain CD36 / CBS 7987 / NCPF 3949 / NRRLY-17841) (Yeast), UniProt B9W6M3); assay: blockers of CaCl2-induced CDRE-lacZ signaling – S. cerevisiae, luminescence, secondary, dose response (AID 2388); format: functional, cell-based;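 also: yeast reporter cells carrying a calcineurin-responsive lacZ construct stimulated with calcium chloride; luminescent beta-galactosidase reporter signal in whole cells rather than isolated phosphatase activity; potency for inhibition where a drop in reporter signal means calcineurin blockade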
T3 sequence (B9W6M3 whole entry): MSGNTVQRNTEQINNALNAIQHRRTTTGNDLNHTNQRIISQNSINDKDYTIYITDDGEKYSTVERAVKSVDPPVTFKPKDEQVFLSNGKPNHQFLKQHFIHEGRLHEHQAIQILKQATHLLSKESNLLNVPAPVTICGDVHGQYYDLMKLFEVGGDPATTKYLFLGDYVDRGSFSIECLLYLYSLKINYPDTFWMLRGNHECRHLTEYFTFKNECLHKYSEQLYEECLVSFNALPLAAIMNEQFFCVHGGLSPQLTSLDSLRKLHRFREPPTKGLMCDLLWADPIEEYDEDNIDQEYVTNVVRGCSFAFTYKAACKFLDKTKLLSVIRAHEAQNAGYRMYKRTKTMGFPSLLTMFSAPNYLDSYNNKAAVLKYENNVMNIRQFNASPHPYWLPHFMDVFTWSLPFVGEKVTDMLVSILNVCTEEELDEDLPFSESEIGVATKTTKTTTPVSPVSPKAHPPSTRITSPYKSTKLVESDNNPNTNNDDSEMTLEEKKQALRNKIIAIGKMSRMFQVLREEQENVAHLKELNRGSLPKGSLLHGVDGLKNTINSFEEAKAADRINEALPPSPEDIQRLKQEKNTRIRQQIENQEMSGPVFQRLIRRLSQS

[20] = target: ATP-dependent molecular chaperone HSP82 (Candida albicans (strain WO-1) (Yeast), UniProt C4YTQ8); assay: steroid-induced GRE reporter decrease in yeast – S. cerevisiae, luminescence, Hsp90 inhibitor project, dose response (AID 2400); format: functional, cell-based;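 also: beta-galactosidase luminescence from glucocorticoid response element reporter as proxy for Hsp90 function; inhibitor potency where signal loss means Hsp90 inhibition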
[21] = target: Cytochrome P450 2C19 (Homo sapiens, UniProt P33261); assay: Cytochrome panel assay with activity outcomes. Panel member name: p450-cyp2c19 Compounds with AC50 equal or less than 10 uM are considered active; format: functional; details: read-out: AC50
Chain of Cytochrome P450 2C19 (P33261 whole entry): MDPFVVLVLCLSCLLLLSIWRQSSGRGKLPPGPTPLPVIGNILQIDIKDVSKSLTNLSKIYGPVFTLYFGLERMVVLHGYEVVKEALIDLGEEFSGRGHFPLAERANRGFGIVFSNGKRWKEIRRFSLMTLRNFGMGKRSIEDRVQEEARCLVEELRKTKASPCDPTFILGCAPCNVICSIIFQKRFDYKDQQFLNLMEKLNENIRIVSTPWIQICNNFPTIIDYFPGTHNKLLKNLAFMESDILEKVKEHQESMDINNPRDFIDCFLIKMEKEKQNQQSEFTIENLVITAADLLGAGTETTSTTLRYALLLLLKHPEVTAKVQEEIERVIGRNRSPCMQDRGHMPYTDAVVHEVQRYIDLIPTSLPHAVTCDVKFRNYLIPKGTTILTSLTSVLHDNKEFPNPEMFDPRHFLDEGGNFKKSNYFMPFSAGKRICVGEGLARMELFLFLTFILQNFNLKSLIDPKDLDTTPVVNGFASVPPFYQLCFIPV

Chain of Cytochrome P450 3A4 (P08684 whole entry): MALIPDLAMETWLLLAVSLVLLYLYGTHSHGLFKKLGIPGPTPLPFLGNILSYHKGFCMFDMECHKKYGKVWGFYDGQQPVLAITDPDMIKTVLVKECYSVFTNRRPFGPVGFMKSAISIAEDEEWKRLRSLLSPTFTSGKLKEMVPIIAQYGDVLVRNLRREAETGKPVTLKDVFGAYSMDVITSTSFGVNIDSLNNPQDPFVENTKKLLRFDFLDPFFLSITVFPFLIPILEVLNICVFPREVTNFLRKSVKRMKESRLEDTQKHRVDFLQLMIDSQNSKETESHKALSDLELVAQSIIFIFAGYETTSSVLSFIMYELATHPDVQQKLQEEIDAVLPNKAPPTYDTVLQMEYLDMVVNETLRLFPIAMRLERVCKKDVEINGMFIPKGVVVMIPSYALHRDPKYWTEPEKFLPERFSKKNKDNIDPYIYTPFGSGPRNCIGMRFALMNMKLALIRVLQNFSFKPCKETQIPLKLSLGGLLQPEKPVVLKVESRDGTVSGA
Chain of Cytochrome P450 2C9 (P11712 whole entry): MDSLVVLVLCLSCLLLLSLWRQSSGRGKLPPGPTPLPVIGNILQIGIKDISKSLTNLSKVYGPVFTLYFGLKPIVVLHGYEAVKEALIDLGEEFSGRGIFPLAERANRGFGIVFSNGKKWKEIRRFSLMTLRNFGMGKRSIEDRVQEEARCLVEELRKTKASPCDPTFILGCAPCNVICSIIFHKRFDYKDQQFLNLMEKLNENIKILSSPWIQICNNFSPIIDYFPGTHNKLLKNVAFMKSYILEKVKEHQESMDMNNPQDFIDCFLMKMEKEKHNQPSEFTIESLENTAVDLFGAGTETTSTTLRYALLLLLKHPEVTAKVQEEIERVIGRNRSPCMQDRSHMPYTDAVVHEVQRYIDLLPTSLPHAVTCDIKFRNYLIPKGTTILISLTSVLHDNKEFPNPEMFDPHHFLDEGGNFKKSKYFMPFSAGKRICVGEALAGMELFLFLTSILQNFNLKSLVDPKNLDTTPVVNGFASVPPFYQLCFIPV
Chain of Ras and Rab interactor 1/Tyrosine-protein kinase ABL1 (P00519 whole entry): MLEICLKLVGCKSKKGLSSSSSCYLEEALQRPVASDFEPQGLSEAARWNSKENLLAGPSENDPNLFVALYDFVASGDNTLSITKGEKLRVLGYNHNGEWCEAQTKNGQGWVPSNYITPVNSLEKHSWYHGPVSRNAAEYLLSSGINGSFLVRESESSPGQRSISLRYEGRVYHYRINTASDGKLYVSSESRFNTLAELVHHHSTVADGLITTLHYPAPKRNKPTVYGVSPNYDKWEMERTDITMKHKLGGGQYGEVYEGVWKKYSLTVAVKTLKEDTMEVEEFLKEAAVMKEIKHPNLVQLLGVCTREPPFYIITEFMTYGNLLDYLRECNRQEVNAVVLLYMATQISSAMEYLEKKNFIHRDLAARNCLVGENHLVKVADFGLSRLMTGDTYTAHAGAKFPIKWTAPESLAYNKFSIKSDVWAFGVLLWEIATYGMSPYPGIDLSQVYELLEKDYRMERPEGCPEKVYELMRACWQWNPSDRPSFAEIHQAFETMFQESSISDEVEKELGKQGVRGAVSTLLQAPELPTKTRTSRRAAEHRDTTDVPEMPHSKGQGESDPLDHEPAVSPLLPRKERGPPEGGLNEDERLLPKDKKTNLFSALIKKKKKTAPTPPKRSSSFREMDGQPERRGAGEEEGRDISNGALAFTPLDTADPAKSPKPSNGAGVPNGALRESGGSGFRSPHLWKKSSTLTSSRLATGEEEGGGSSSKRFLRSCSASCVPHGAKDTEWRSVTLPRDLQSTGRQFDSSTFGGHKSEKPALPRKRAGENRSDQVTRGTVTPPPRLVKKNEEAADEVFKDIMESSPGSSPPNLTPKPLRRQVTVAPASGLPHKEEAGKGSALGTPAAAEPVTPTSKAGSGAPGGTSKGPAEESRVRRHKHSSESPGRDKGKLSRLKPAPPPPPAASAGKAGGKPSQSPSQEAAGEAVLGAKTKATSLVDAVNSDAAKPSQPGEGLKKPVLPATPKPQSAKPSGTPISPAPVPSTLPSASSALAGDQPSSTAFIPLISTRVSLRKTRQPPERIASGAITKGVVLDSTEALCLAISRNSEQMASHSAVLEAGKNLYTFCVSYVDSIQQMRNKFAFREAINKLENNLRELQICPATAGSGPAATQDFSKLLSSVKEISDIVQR
Chain of Ras and Rab interactor 1/Tyrosine-protein kinase ABL1 (Q13671 whole entry): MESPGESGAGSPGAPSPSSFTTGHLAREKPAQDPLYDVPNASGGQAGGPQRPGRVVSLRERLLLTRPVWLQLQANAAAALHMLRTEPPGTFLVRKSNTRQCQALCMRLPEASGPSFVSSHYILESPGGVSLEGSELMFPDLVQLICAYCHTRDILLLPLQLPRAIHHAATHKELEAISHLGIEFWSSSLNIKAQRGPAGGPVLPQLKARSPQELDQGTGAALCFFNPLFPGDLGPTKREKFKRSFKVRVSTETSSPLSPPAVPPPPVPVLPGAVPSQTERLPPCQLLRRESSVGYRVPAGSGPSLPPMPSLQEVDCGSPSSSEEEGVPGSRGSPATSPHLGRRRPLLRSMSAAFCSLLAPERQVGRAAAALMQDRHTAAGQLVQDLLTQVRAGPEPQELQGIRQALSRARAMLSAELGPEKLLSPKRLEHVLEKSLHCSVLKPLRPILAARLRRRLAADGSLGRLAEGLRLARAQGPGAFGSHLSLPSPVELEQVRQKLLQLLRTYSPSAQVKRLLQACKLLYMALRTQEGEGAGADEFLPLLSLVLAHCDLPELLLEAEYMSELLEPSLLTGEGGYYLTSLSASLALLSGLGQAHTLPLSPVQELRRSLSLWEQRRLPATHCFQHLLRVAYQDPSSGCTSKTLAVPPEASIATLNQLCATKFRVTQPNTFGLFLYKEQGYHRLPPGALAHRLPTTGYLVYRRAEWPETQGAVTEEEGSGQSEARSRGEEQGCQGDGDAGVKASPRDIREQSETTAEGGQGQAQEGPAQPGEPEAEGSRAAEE
Chain of ATP-dependent molecular chaperone HSP82 (C4YTQ8 whole entry): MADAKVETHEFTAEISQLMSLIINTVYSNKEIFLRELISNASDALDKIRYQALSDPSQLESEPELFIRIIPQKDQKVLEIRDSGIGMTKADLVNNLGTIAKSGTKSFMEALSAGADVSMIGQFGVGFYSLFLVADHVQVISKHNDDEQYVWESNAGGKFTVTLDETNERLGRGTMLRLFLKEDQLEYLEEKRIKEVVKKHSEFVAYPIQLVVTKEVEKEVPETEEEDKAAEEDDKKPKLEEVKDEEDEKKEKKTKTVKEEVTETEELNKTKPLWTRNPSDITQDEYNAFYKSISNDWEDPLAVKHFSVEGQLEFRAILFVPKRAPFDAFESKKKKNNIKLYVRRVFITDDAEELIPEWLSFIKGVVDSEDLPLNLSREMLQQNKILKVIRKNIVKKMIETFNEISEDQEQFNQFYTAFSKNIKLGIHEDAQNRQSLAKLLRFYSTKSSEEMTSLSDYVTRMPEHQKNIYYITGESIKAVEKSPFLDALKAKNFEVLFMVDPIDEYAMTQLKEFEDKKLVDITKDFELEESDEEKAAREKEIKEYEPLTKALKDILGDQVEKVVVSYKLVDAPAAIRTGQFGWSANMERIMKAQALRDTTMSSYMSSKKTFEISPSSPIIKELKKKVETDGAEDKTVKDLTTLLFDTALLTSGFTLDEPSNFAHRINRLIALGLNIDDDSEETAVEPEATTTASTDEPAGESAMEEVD
Chain of Protein Wnt-3a (P27467 whole entry): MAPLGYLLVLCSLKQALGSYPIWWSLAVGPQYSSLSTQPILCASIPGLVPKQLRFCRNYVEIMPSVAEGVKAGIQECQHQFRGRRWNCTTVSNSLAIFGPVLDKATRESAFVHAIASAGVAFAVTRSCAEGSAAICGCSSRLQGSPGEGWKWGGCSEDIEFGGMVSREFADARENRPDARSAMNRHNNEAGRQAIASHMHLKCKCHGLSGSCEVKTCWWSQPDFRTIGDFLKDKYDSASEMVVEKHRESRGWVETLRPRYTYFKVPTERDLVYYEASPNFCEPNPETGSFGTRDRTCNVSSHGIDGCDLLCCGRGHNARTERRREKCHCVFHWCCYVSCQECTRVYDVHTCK
Chain of Paired box protein Pax-8 (Q06710 whole entry): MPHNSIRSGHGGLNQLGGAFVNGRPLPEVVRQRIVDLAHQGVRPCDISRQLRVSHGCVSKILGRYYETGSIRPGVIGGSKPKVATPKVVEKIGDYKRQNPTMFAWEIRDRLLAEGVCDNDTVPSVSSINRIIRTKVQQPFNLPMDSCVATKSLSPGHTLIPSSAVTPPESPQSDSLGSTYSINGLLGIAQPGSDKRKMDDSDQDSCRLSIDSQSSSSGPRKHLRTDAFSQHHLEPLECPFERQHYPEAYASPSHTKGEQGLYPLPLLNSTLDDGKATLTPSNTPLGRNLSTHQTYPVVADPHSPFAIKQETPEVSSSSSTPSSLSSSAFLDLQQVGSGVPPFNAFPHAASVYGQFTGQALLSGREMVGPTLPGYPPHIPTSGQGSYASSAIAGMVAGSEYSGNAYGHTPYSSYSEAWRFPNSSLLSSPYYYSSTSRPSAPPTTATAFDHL

Which results are given for CCOc1ccc(-c2cc(C)[n+](CCO)c(-c3ccc(OCC)cc3)c2)cc1.[O-][Cl+3]([O-])([O-])[O-]?
EC50 [1]: < 0.1 µM (active); AC50 [2]: 11.1 µM (active); IC50 [3]: 50 µM (inactive); EC50 [4]: > 160 µM (inactive); EC50 [5]: > 60 µM (inconclusive); EC50 [6]: 0.079 µM (active); EC50 [7]: > 38 µM (not active)

Which results are given for CCCCCCCN(C(=O)CCl)c1cccc(C)c1?
EC50 [8]: 0.36 µM (inconclusive); AC50 [9]: 5.91 µM (active); EC50 [10]: > 75 µM (inconclusive); AC50 [11]: 9.19 µM (active); EC50 [12]: 2.48 µM (inconclusive); EC50 [13]: 3.93 µM (inconclusive); EC50 [14]: 3.17 µM (active)

For N=c1c2c(-c3ccccc3)c(-c3ccccc3)n(Cc3ccco3)c2ncn1CCCn1ccnc1, which EC50 [8] is on record?
The EC50 was 9.46 µM (active).

And the EC50 [10]?
The EC50 was > 75 µM (not active).

What about the EC50 [12] of the same compound?
Its EC50 is 9.54 µM (active).

What about the EC50 [13] of the same compound?
Its EC50 is 22.5 µM (active).

What about the EC50 [14] of the same compound?
Its EC50 is 1.81 µM (active).

Which IC50 [15] does the source give for CN(Cc1c(F)cccc1Cl)C(=O)CNC(=O)c1ccc2c(c1)OCO2 here?
Its IC50 is 6.04 µM (active).

For CCCCn1nnnc1C(c1cc2ccccc2o1)N1CCN(c2cc(C)nc3ccccc23)CC1 (stereo not given), which IC50 [16] is on record?
The IC50 was 9.12 µM (active).

What does the source list for C=CCN1CCc2c(cc(O)c(O)c2Br)[C@H](c2ccccc2)C1?
AC50 [17]: inconclusive; AC50 [18]: 31.6 µM (inconclusive)

With Cc1ccccc1/C=C1\SC(=S)N(/N=C/c2cc([N+](=O)[O-])ccc2O)C1=O as the compound, how does the EC50 [4] read?
Its EC50 is > 160 µM (inactive).

And the EC50 [19]?
The EC50 was > 180 µM (inactive).

And the EC50 [7]?
The EC50 was 2.01 µM (active).

And the EC50 [20]?
Its EC50 is 20.7 µM (active).

Which results are given for CCC(=O)O[C@H]1CC[C@H]2[C@@H]3CCC4=CC(=O)CC[C@]4(C)[C@H]3CC[C@]12C [TESTOSTERONE PROPIONATE]?
AC50 [17]: inconclusive; AC50 [21]: 10 µM (inconclusive); AC50 [18]: 12.6 µM (inconclusive)
